One data set deals with T1, human KISS1R receptor (Homo sapiens, UniProt Q969F8).
T1 construct: expressed in transfected cells
In words: Intracellular calcium mobilization test in HEK293A cells expressing human KISS1R. It counts as cell-based. Conditions: for EC50: HEK293A cells expressing human KISS1R, Fluo-4NW; for human KISS1R-stimulating power (in words): calcium mobilization, compared with Comp.1.

Data set [1] can be described thus: Test for proteolytic degradation of the peptide compounds in ovine serum. Conditions: female, Ile de France, sheep. It counts as in vitro ADME, ewes of the Ile de France breed. As to the method: In order to carry out this test, blood was collected from the jugular vein of ewes of the Ile de France breed, and centrifuged. The supernatant (serum) was stored at −20° C. until use.
The degradation in this serum of the various peptide compounds in accordance with the invention and of the comparative peptide compounds is monitored over time. To this effect, each peptide compound to be analyzed and the internal calibrant (L-phenylalaninol) are dissolved in milliQ water (0.5 mM and 6.6 mM, respectively). The commercial protease inhibitor cocktail (Sigma, ref. P8340) is supplied in solution in DMSO.
The serum and the stock solutions of peptide compounds are preheated at 39° C. for 30 minutes. Each solution of peptide compound (50 μl, i.e. a final concentration in the serum of 50 μM) and the solution of internal calibrant (25 μl) are mixed with 425 μl of serum and incubated at 39° C. The proteolytic degradation kinetics of the compounds are monitored by taking a sample, at various given times, of 75 μl of the solution, which are diluted with 150 μL of acetonitrile in order to precipitate the serum proteins. The suspension obtained is centrifuged at 14 000 revolutions/min for 10 min at 4° C.
The amount of peptide compound intact after incubation is determined by integration of the area of the peak, using L-phenylalaninol as internal calibrant. It is expressed as % of the area of the peak at time t=0.
The value corresponding to 100% of intact peptide compound is obtained by mixing 420 μl of serum, 5 μl of the inhibitor cocktail and 25 μl of the phenylalaninol solution, followed by 50 μl of peptide compound, and then by immediately treating the resulting solution according to the protocol described above.

Setting [2] is: compounds with serum albumin binding unit or PEG, read-out: EC50, intracellular calcium mobilization of cells expressing human KISS1R (Table 3).
Setting [3] is: ovine serum, 39° C., 50 μM, 3 h, % of the area of the HPLC peak at time t = 0, read-out: % of peptide intact after 3 h of incubation in the serum.
Where [4] appears, read: read-out: EC50, intracellular calcium mobilization of cells expressing human KISS1R (Table 2).

Where two headings read alike, the source gives them in different places. *1 amine or outer side, *2 acyl side, *3 side chain or, on linkers, in order; H or OH if unused. Where a SMILES comes first, the peptide text is derived from it. [ ]: non-standard residue; d: D form. The star is where a group is joined. PEG 5000 = polyethylene glycol (5000) attached to the Lys side chain; Glyψ(1,4-Tz)Leu = CC(C)C[C@@H](C(=O)[*:2])n1cc(CN[*:1])nn1; γGlu = O=C(O)[C@H](CCC(=O)[*:2])N[*:1]; Arg(Me) = CNC(=N)NCCC[C@H](N)C(=O)O; Palmitoyl = CCCCCCCCCCCCCCCC(=O)*

T1 sequence (Q969F8 whole entry): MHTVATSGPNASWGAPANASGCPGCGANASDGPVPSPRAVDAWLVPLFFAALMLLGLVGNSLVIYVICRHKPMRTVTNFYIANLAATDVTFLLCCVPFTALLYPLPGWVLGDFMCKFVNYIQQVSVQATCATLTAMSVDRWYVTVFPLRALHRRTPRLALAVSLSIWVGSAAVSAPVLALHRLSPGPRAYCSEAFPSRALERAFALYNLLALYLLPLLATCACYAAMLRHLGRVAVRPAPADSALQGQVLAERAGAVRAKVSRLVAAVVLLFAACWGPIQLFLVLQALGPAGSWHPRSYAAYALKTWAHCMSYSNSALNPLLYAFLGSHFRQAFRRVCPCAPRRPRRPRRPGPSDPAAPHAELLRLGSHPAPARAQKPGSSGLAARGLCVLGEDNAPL
From the text for human KISS1R receptor: In order to carry out the in vitro tests for the activity of the peptide compounds in accordance with the invention and the comparative compounds, the HEK293A cell line (ATCC, American Type Culture Collection, Manassas, Va., USA) was stably transfected with the human KISS1R receptor (Genbank accession number: NM_032551). The pcDNA3.1 vector (Invitrogen, Cergy Pontoise, France), into which the sequence of human KISS1R has been inserted with a 5′ HA tag at position 957-2150 bp, was used for the transfection. The transfection and the selection of the clones were carried out as described in the literature (Mancini et al. 2009, and Invitrogen website).
In order to verify the agonist activity and to measure the EC50 of the peptide compounds according to the invention, the following protocol was carried out.
HEK293A cells expressing the human KISS1R receptor were seeded into a 96-well plate (μClear® black plate) at the concentration of 40 000 cells/well, and placed in an incubator at 37° C. After 48 hours, the medium was changed and the cells were incubated with the fluorescent dye Fluo-4NW, according to the instructions of the manufacturer (Molecular Probe).
After having measured the basal fluorescence, 5 μl of the 20× solution containing the test compound were added to each well (containing 95 μl) so as to obtain the desired concentration. The variations in fluorescence were recorded every 7 seconds for 5-7 minutes with a plate reader (PolarStar Optima, BMG Labtech). Activity-concentration curves were generated using the GraphPad Prism 5 software, and the EC50 of each compound was calculated by adjusting the curve to a sigmoid.

In general, EC50 refers to the concentration giving half of the maximal effect. Consider `CCCCCCCCCCCCCCCC(=O)N[C@@H](CCC(=O)N[C@@H](Cc1ccc(O)cc1)C(=O)N[C@@H](CC(N)=O)C(=O)N[C@@H](Cc1c[nH]c2ccccc12)C(=O)N[C@@H](CC(N)=O)C(=O)N[C@@H](CO)C(=O)N[C@@H](Cc1ccccc1)C(=O)NCc1cn([C@@H](CC(C)C)C(=O)N[C@@H](CCCNC(=N)N)C(=O)N[C@@H](Cc2c[nH]c3ccccc23)C(N)=O)nn1)C(=O)O` [Compound C10, γ-(N-hexadecanoyl-Glu-OH)Tyr-Asn-Trp-Asn-Ser-Phe-GlyΨ[Tz]Leu-Arg-Trp-NH2] (HELM PEPTIDE1{[CCCCCCCCCCCCCCCC(=O)[*:2]].[gGlu].Y.N.W.N.S.F.[CC(C)C[C@@H](C(=O)[*:2])n1cc(CN[*:1])nn1].R.W.[am]}$$$$V2.0), for which the EC50 at human KISS1R receptor (setting [2]) was less than 0.001 nM. As to “Ac-Tyr-Lys(PEG5000)-Trp-Asn-Ser-Phe-GlyΨ[Tz]Leu-Arg-Tyr-NH2 (Ac-YK(PEG 5000)WNSFGLRY-NH2; also: Gly7-Leu8 peptide bond replaced by 1,4-disubstituted 1,2,3-triazole) [Compound C16, PEG5000 = COCH2CH2NH(CH2CH2O)nMe, average molecular weight approximately 5000 g/mol]”, the “human KISS1R-stimulating power (in words)” value with human KISS1R receptor is recorded as “shows a power similar to the comparative compound Comp.1”. Turning to `CCCCCCCCCCCCCCCC(=O)N[C@@H](CCC(=O)N[C@@H](Cc1ccc(O)cc1)C(=O)N[C@@H](CC(N)=O)C(=O)N[C@@H](Cc1c[nH]c2ccccc12)C(=O)N[C@@H](CC(N)=O)C(=O)N[C@@H](CO)C(=O)N[C@@H](Cc1ccccc1)C(=O)NCc1cn([C@@H](CC(C)C)C(=O)N[C@@H](CCCNC(=N)N)C(=O)N[C@@H](Cc2ccc(O)cc2)C(N)=O)nn1)C(=O)O` [Compound C9, γ-(N-hexadecanoyl-Glu-OH)-Tyr-Asn-Trp-Asn-Ser-Phe-GlyΨ[Tz]Leu-Arg-Tyr-NH2] (HELM PEPTIDE1{[CCCCCCCCCCCCCCCC(=O)[*:2]].[gGlu].Y.N.W.N.S.F.[CC(C)C[C@@H](C(=O)[*:2])n1cc(CN[*:1])nn1].R.Y.[am]}$$$$V2.0), the EC50 at human KISS1R receptor (setting [2]) is less than 0.001 nM. For the compound “H-YNWNSFGLRY-NH2 [Comp. 1, reference compound]”, the remaining at 3 h, 50 μM in data set [1] (setting [3]) is less than 0.1%. As to `CCCCCCCCCCCCCCCC(=O)N[C@@H](CCC(=O)NCCCC[C@H](NC(=O)[C@H](CC(N)=O)NC(=O)[C@H](Cc1ccc(O)cc1)NC(C)=O)C(=O)N[C@@H](CC(N)=O)C(=O)N[C@@H](CO)C(=O)N[C@@H](Cc1ccccc1)C(=O)NCc1cn([C@@H](CC(C)C)C(=O)N[C@@H](CCCNC(=N)N)C(=O)N[C@@H](Cc2ccc(O)cc2)C(N)=O)nn1)C(=O)O` [Compound C11, Ac-Tyr-Asn-Lys(γ-(N-hexadecanoyl-Glu-OH))-Asn-Ser-Phe-GlyΨ[Tz]Leu-Arg-Tyr-NH2] (HELM PEPTIDE1{[ac].Y.N.K.N.S.F.[CC(C)C[C@@H](C(=O)[*:2])n1cc(CN[*:1])nn1].R.Y.[am]}|PEPTIDE2{[CCCCCCCCCCCCCCCC(=O)[*:2]].[gGlu]}$PEPTIDE1,PEPTIDE2,4:R3-2:R2$$$V2.0), the “human KISS1R-stimulating power (in words)” value on human KISS1R receptor is on record as “remains, however, active, although to a lesser degree”. For the compound `CC(C)C[C@H](NC(=O)CNC(=O)[C@H](Cc1ccccc1)NC(=O)[C@H](CO)NC(=O)[C@H](CC(N)=O)NC(=O)[C@H](Cc1c[nH]c2ccccc12)NC(=O)[C@H](CC(N)=O)NC(=O)[C@@H](N)Cc1ccc(O)cc1)C(=O)N[C@@H](CCCNC(=N)N)C(=O)N[C@@H](Cc1ccccc1)C(N)=O` [Comp. 2, reference compound], the remaining at 3 h, 50 μM in data set [1] (setting [3]) is less than 0.1%. In turn, `CNC(=N)NCCC[C@H](NC(=O)[C@H](CC(C)C)n1cc(CNC(=O)[C@H](Cc2ccccc2)NC(=O)[C@@H](NC(=O)[C@H](CC(N)=O)NC(=O)[C@@H]2C[C@@H](O)CN2C(=O)[C@@H](Cc2ccc(O)cc2)NC(C)=O)[C@@H](C)O)nn1)C(=O)N[C@@H](Cc1c[nH]c2ccccc12)C(N)=O` [Compound C7, Ac-DTyr-Hyp-Asn-Thr-Phe-GlyΨ[Tz]Leu-Arg(Me)-Trp-NH2] (HELM PEPTIDE1{[ac].[dY].[Hyp].N.T.F.[CC(C)C[C@@H](C(=O)[*:2])n1cc(CN[*:1])nn1].[CNC(=N)NCCC[C@H](N[*:1])C(=O)[*:2]].W.[am]}$$$$V2.0) registered a remaining at 3 h, 50 μM in data set [1] (serum) of 17%. On human KISS1R receptor (setting [4]), the EC50 is 0.014 nM. With `CCCCCCCCCCCCCCCC(=O)N[C@@H](CCC(=O)N[C@@H](Cc1ccc(O)cc1)C(=O)N[C@@H](CC(N)=O)C(=O)N[C@@H](Cc1c[nH]c2ccccc12)C(=O)N[C@@H](CC(N)=O)C(=O)N[C@@H](CO)C(=O)N[C@@H](Cc1ccccc1)C(=O)NCc1cn([C@@H](CC(C)C)C(=O)N[C@@H](CCCNC(=N)NC)C(=O)N[C@@H](Cc2ccc(O)cc2)C(N)=O)nn1)C(=O)O` [Compound C12, γ-(N-hexadecanoyl-Glu-OH)Tyr-Asn-Trp-Asn-Ser-Phe-GlyΨ[Tz]Leu-Arg(Me)-Tyr-NH2] ({Palmitoyl-γGlu}-YNWNSF[Glyψ(1,4-Tz)Leu][Arg(Me)]Y-NH2), the EC50 at human KISS1R receptor (setting [2]) was less than 0.001 nM. In data set [1] (serum), `CNC(=N)NCCC[C@H](NC(=O)[C@H](CC(C)C)n1cc(CNC(=O)[C@H](Cc2ccccc2)NC(=O)[C@H](CO)NC(=O)[C@H](CC(N)=O)NC(=O)[C@H](Cc2c[nH]c3ccccc23)NC(=O)[C@H](CC(N)=O)NC(=O)[C@H](Cc2ccc(O)cc2)NC(C)=O)nn1)C(=O)N[C@@H](Cc1ccc(O)cc1)C(N)=O` [Compound C3, Ac-Tyr-Asn-Trp-Asn-Ser-Phe-GlyΨ[Tz]Leu-Arg(Me)-Tyr-NH2] (HELM PEPTIDE1{[ac].Y.N.W.N.S.F.[CC(C)C[C@@H](C(=O)[*:2])n1cc(CN[*:1])nn1].[CNC(=N)NCCC[C@H](N[*:1])C(=O)[*:2]].Y.[am]}$$$$V2.0) yielded a remaining at 3 h, 50 μM of 55%. Further, on human KISS1R receptor (setting [4]), the EC50 came to 0.014 nM. Regarding `CCCCCCCCCCCCCCCC(=O)N[C@@H](CCC(=O)N[C@@H](Cc1ccc(O)cc1)C(=O)N[C@@H](CC(N)=O)C(=O)N[C@@H](Cc1c[nH]c2ccccc12)C(=O)N[C@@H](CC(N)=O)C(=O)N[C@@H](CO)C(=O)N[C@@H](Cc1ccccc1)C(=O)NCc1cn([C@@H](CC(C)C)C(=O)N[C@@H](CCCNC(=N)N)C(=O)N[C@@H](Cc2ccccc2)C(N)=O)nn1)C(=O)O` [Compound C13, γ-(N-hexadecanoyl-Glu-OH)Tyr-Asn-Trp-Asn-Ser-Phe-GlyΨ[Tz]Leu-Arg-Phe-NH2] (HELM PEPTIDE1{[CCCCCCCCCCCCCCCC(=O)[*:2]].[gGlu].Y.N.W.N.S.F.[CC(C)C[C@@H](C(=O)[*:2])n1cc(CN[*:1])nn1].R.F.[am]}$$$$V2.0), the EC50 on human KISS1R receptor (setting [2]) was determined as 0.01 nM. Consider `CC(=O)N[C@@H](Cc1ccc(O)cc1)C(=O)N[C@@H](CC(N)=O)C(=O)N[C@@H](Cc1c[nH]c2ccccc12)C(=O)N[C@@H](CC(N)=O)C(=O)N[C@@H](CO)C(=O)N[C@@H](Cc1ccccc1)c1cn(Cc2cn([C@@H](CC(C)C)C(=O)N[C@@H](CCCNC(=N)N)C(=O)N[C@@H](Cc3ccc(O)cc3)C(N)=O)nn2)nn1` [Compound C5, Ac-Tyr-Asn-Trp-Asn-Ser-PheΨ[Tz]GlyΨ[Tz]Leu-Arg-Tyr-NH2], for which the remaining at 3 h, 50 μM in data set [1] (serum) was found to be 51%. The “human KISS1R-stimulating power (in words)” value at human KISS1R receptor is listed as “remains, however, active, although to a lesser degree”.

These data come from patent US9884891B2, “KISS1R receptor agonist compounds and use thereof for inducing ovulation in mammals” (INSTITUT NATIONAL DE LA RECHERCHE AGRONOMIQUE, priority 2013, dated 2018).
